In US12016834B2, “Small molecule inhibitors of SLC25A1” (GEORGETOWN UNIVERSITY, priority 2017, dated 2024):

Experiments:
MP2 cells [1] = assay: Viability (Crystal Violet) and drug interaction (R index); type: cell-based, human; settings: single drug, 5 days, monolayer
Method: (§1) Cellular proliferation and cytotoxicity assays. […] The cells were then washed with 1×PBS and fixed with cold 100% methanol at−20° C. for 20 minutes. Methanol was washed off and the cells were stained with 0.5% crystal violet dissolved in 25% methanol and water at 4° C. for 20 minutes. The staining was washed off using deionized (DI) water and the plate was dried overnight. On the second day, 100 mM sodium citrate in 50% ethanol and 50% water was added to the wells and absorbance at 550 nm was measured and corrected with readings at 405 nm. In other experiments, cell viability was assessed by trypan blue exclusion and visual count of the live cells was performed.
(§2) Statistical methods for drug interactions. […] Sexp/Sobs=1.0 denotes an additive interaction, while >1.0 denotes a synergistic interaction. R index values approaching 2.0 are indicative of strong synergy.

MP1 cells = assay: as above; type: cell-based, human; settings: single drug, 5 days, monolayer
Method: as §1, §2

MP3 cells = assay: as above; type: cell-based, human; settings: single drug, 5 days, monolayer
Method: as §1, §2

MP2 cells [2] = assay: Seahorse OCR and ATP in patient-derived cells; type: cell-based, human; settings: monolayer, chronic treatment for several passages (FIG. 6B)
Method: Primary lung cancer cultures and GMSC. Surgical samples were minced and digested with dispase (50 U/ml) in DMEM media containing 5% serum for 1 hour. Pleural effusions were centrifuged, washed once in PBS, and then plated. All primary cultures were initially grown on 6-well plates pre-coated with 2% Geltrex (Life Technologies; Carlsbad, CA) and 1% Maxgel (Sigma Aldrich). Maxgel is a humanized matrix, native and non-denatured. The inclusion of Maxgel in the system enhanced the initial attachment of primary tumor cells, partially because Maxgel provides a more natural ECM conformational substrate. The day after plating, the media containing unattached cells was typically transferred to a fresh plate, in most of cases generating new attached cultures. The media (Stem Cell Media) is the DMEM/F12 (Thermo-Fisher #11320-033 basic media) supplemented with the following components: Insulin-Transferrin-Sodium selenite (ITS; 1:1000; Sigma #11884); glutamine (Thermo-Fisher) to 4 mM final concentration; sodium pyruvate (Thermo-Fisher) to 2 mM final concentration; rock inhibitor (Y-27632) 10 micrograms/mL; 2-5% Knock Out Serum Replacement (KNOSR, Thermo-Fisher #10828-028); 0.5% ALBUMAX-(Lipid enriched BSA; Thermo-Fisher #11020-021); N2 Supplement (Thermo-Fisher) 1:250; EGF (5 ng/ml; Peprotech); hFGF (20 ng/ml; Bechman); and IGF-1 (Peprotech; 10-20 ng/ml).
Seahorse extracellular flux analyzer experiments. Cells derived from spheres or monolayer cultures were dissociated and plated overnight at 12,000 cells/well in DMEM with 10% FBS, 5 mM glucose, 1 mM pyruvate, 2 mM glutamine.
For the mitochondrial stress test, the media was replaced with DMEM without FBS or bicarbonate, containing 5 mM glucose, 1 mM pyruvate, 2 mM glutamine and placed in a CO2 free incubator at 37° C. for 1 hour, and then transferred to the Xf96 extracellular flux analyzer (Agilent; Santa Clara, CA). The program consisted of 3 measurements of OCR/ECAR before the injection of each drug: oligomycin (0.5 μM final concentration), FCCP (2 μM) and rotenone/antimycin (0.5 μM of each). For the glycolysis stress test, cells were plated overnight as above, and the media was washed twice the following day with DMEM without FBS, bicarbonate, glucose, glutamine or pyruvate, and incubated in this media in a CO2 free incubator with/without drug treatments at 37° C. for 4 hours. There were 3 measurements of OCR/ECAR before each injection: glucose (10 mM final concentration), oligomycin (0.5 […] (50 mM). For the analysis of glutamine oxidation, the protocol was the same as the glucose stress test, but with glutamine being the only compound injected (final concentration 4 mM) and OCR/ECAR measured for 60 minutes. When spheres were analyzed, they were dissociated with StemPro® Accutase® (Thermo Scientific; Waltham, MA) and plated under the same conditions as above as for the monolayers the day before the assay (H1299 spheres), or in stem cell media (See Stem Cell Media) with the wells coated in 15 μL of 2% geltrex diluted in DMEM:F12 (Thermo Scientific). The results were normalized to cell number.

SLC25A1 = SLC25A1 (Homo sapiens, UniProt P53007); settings: cited from earlier work
Sequence of SLC25A1 (P53007 14-311, species assumed): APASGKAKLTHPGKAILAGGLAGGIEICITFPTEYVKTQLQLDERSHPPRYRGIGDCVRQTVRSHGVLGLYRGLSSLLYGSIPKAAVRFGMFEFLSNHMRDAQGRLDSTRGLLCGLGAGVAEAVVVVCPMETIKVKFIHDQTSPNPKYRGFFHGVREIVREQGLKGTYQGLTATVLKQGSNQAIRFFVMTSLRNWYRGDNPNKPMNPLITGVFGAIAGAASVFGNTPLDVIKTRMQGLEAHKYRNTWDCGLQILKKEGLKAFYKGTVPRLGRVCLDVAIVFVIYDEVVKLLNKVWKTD

H1299 cells = assay: Sphere forming / self-renewal assay; type: cell-based, human; settings: one week after treatment; BTA 2 mM, CTPI 1 mM (FIG. 9F)
Method: Growth of monolayers and sphere cultures. Tumor cell lines were grown as monolayers in complete Dulbecco's Modified Eagle's Media (DMEM, Gibco; supplemented with 10% fetal bovine serum and 1% of 5,000 units/mL of penicillin-streptomycin (pen-strep), Gibco). To generate spheroids, cells were grown in Falcon bacteriological petri dishes coated with 2% poly(2-hydroxyethyl methacrylate) dissolved in 100% ethanol. The growth media was DMEM/F12 (Gibco) supplemented with 20 ng/mL of epidermal growth factor (EGF), 5 ng/mL of fibroblast growth factor, 0.375% 100× N2 supplements (Gibco), and 1% pen-strep. Monolayer cells were dissociated using 0.25% trypsin-edta (Gibco), whereas spheroid cultures were dissociated using StemPro Accutase (Gibco). Patient derived cell lines were grown as described below in the primary lung cultures section.
Self-renewal assays. Tumor cells cultured as spheroids were dissociated and diluted in 2× sphere media containing 1% methyl cellulose, which was previously dissolved in cold DMEM/F12 media. Either 200, 500, or 1000 cells were then plated in each 96 well and were incubated in the presence or absence of drugs, as indicated. The spheres were allowed to form for a period of a week to ten days, at which point they were counted. Six biological replicates were used for quantification of the results.

Structure (SMILES)	response to drug (viability) (MP2 cells [1])	response to drug (viability) (MP1 cells)	response to drug (viability) (MP3 cells)	mitochondrial respiration after chronic drug treatment (MP2 cells [2])	concentration required for inhibition of SLC25A1 (SLC25A1)	sphere forming capacity (H1299 cells)
C=CC(=O)Nc1cc(Nc2nccc(-c3cn(C)c4ccccc34)n2)c(OC)cc1N(C)CCN(C)C [AZD9291, osimertinib, reference compound]	minimal response	minimal response	complete insensitivity	dramatic shift towards mitochondrial respiration	–	–
O=C(O)c1cccc(C(=O)O)c1C(=O)O [BTA, 1,2,3, Benzenetricarboxylic acid]	–	–	–	–	millimolar concentration	reduced sphere forming capacity
